Patent EP2848693A1, “Concatenation of halogenated alkenyl diphosphate derivatives” (LANXESS Deutschland GmbH, priority 2013, dated 2015)

Experiments:
[1] = biological target: T1, EcUPPS (Escherichia coli, UniProt P60472); experiment: Product chain length by HPLC with fluorescent starter substrate 110; type: biochemical; details: 10 µM EcUPPS, 110 as starter substrate, HPLC of hydrolysed products
T1 construct: made in house; host or cells: E. coli
Description: (§1) Zur Bestimmung der Produktkettenlängen wurden 500 µL Enzymassays in MS-Gläschen durchgeführt. […] Die Extraktion der Polyprenyldiphosphate erfolgte mit 500 µL 1-Butanol. Die Butanolphase wurde in ein neues Glas überführt und unter Stickstoffstrom von dem Lösungsmittel befreit. Die Hydrolyse der Diphosphate zum Polyprenol erfolgte durch Zugabe von 200 µL Hydrolysepuffer (20% Isopropanol, 4,4 Units/mL saure Phophatase aus Kartoffeln, 0,1 % Triton X-100, 50 mM Natriumacetat (pH 4,7)) und wurde über Nacht bei 37 °C inkubiert. Die Polyprenole wurden mit 500 µL nHexan extrahiert und zur weiteren DC- oder HPLC-Analyse vorbereitet. Für DC-Experimente und LC/ESI-MS-Analysen wurde die nHexan-Phase in ein neues Glas überführt, das Lösungsmittel abgedampft und die Produkte erneut in 100 µL nHexan resuspendiert um eine Aufkonzentrierung zu erreichen. Für HPLC-Analysen mit 110 ((2E,6E)-8-O-(N-methyl-2-aminobenzoyl)-3,7-dimethyl-2,6-octandien-1-diphosphat) als Startersubstrat wurde die nHexan-Phase 1:3 verdünnt in das HPLC-System mittels Autosampler injiziert.
Die HPLC-Analyse der Polyprenole erfolgte an einer Anlage von Merck HITACHI D-7000, wobei als stationäre Phase eine YMC-ODS AQ (150 x 4 mm, 5 µm; YMC Europe GmbH, Dinslaken) Säule verwendet wurde. Die Elution erfolgte mit 1 mL·min^-1 und die Detektion bei 210 nm mit einem UV-VIS Detektor: Merck HITACHI L-7420. […]

[2] = biological target: T2, ThkCPT (Thermococcus kodakarensis, UniProt Q5JGE1); experiment: as above; type: biochemical, Thermococcus kodakaraensis; details: 10 µM ThkCPT, 110 as starter substrate, room temperature 25°C
T2 construct: made in house; host or cells: E. coli
T2 sequence (Q5JGE1 1-264): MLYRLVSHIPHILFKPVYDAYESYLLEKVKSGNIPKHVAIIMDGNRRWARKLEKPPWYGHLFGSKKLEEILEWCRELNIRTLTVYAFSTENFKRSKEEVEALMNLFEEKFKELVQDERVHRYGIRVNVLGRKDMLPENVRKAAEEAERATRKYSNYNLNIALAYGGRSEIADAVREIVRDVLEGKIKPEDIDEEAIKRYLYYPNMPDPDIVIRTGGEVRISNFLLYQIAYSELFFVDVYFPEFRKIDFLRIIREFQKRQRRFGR
Description: as §1
Die HPLC-Analyse der Polyprenole erfolgte an einer Anlage von Merck HITACHI D-7000, wobei als stationäre Phase eine YMC-ODS AQ (150 x 4 mm, 5 µm; YMC Europe GmbH, Dinslaken) Säule verwendet wurde. Die Elution erfolgte mit 1 mL·min^-1 und die Detektion bei 210 nm mit einem UV-VIS Detektor: Merck HITACHI L-7420. Das Injektionsvolumen betrug dabei 5 µL. Die mobile Phase setzte sich aus Laufmittel A (MeOH/H2O/Isopropanol 12:1:8 (v/v/v)) und Laufmittel B (nHexan/Isopropanol 7:3 (v/v)) zusammen. Die Probenaufgabe erfolgte mittels Autosampler (Merck HITACHI L-7250). [drawing 35]
Zur selektiven und vor allem sensitiven Detektion von Polyprenolen kann ein alternatives, fluoreszierendes Startersubstrat verwendet werden, (2E,6E)-8-O-(N-methyl-2-aminobenzoyl)-3,7-dimethyl-2,6-octandien-1-diphosphat (110). Die Analyse erfolgte wie in Beispiel 6 beschrieben. Dabei wurden 3 µL pro Probe injiziert und die Detektion erfolgte über Fluoreszenz: Ex 352 nm / Em 420 nm wobei das Gerät Merck HITACHI L-7480 als Fluoreszenzdetektor verwendet wurde. […]

T1 sequence (P60472 whole entry): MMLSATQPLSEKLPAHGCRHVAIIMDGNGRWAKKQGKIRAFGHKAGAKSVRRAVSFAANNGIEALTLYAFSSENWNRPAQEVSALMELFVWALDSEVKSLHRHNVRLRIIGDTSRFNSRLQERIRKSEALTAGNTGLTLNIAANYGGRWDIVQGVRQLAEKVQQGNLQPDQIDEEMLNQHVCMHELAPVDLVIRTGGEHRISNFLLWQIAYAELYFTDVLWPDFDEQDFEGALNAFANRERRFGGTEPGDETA

C=C(Cl)CCOP(=O)(O)OP(=O)(O)O [Cl-BPP, 3-Chlor-3-Butenyldiphosphat]
Kondensationsschritte / Elongationseinheiten [1]: 2 | Kondensationen (Reaktionsprodukte) [2]: mehr als zwei Kondensationen
